Source: patent US12291519B2, “2-hydroxycycloalkane-1-carbamoyl” (Idorsia Pharmaceuticals Ltd, priority 2019, dated 2025)

Key:
[1] = molecular target: human Gal-1 (hGal-1); test: Competitive binding assay: biotinylated hGal-1 binding to microplate-adsorbed asialofetuin (ASF); conditions: Activity on hGal-1; binding of biotinylated hGal-1 to ASF-coated plates; mean values
Procedure, shortened: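 Inhibition measured as loss of hGal-1 (biotinylated, 300–1000 ng/mL, wild type or Cys→Ser mutant) binding to adsorbed asialofetuin over 3 h at 4 °C. Bound lectin detected with streptavidin-HRP and ABTS (410 nm, 30–45 min); IC50 values averaged across repeat measurements.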

[2] = molecular target: human Gal-3 (hGal-3) (Homo sapiens (Human), UniProt P17931); test: Competitive binding assay: biotinylated hGal-3 binding to microplate-adsorbed asialofetuin (ASF); conditions: Activity on hGal-3; binding of biotinylated hGal-3 to ASF-coated plates; mean values
Procedure, shortened: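 Serially diluted compounds competed with biotinylated human Gal-3 for binding to plate-adsorbed asialofetuin over 3 h at 4 °C. Bound Gal-3 was detected with streptavidin-peroxidase (80 ng/mL, 1 h, 4 °C) and ABTS substrate. IC50 values are means of several measurements.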

Sequence of human Gal-1 (hGal-1) (P09382 2-135 limits assumed): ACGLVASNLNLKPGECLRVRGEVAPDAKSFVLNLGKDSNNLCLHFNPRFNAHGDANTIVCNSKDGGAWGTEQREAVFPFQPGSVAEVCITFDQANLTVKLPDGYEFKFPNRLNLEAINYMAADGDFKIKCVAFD
Sequence of human Gal-3 (hGal-3) (P17931 whole entry): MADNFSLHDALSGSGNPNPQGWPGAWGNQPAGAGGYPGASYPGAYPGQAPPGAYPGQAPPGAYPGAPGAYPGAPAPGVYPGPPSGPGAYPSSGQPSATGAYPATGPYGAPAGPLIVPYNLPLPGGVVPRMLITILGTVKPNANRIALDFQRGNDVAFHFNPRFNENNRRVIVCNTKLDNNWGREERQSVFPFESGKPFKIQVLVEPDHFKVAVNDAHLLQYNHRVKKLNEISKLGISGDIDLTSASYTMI

Row | Structure (SMILES) | IC50 [1] [nM] | IC50 [2] [nM]
1 | CO[C@@H]1[C@@H](n2cc(-c3cc(F)c(F)c(F)c3)nn2)[C@@H](O)[C@@H](CO)O[C@H]1C(=O)N(Cc1cc2ccccc2n1C)[C@H]1CCCC[C@@H]1O [Example 48, (2R,3R,4S,5R,6R)-5-hydroxy-N-((1S,2S)-2-hydroxycyclohexyl)-6-(hydroxymethyl)-3-methoxy-N-((1-methyl-1H-indol-2-yl)methyl)-4-(4-(3,4,5-trifluorophenyl)-1H-1,2,3-triazol-1-yl)tetrahydro-2H-pyran-2-carboxamide] | 2240 | 344
2 | O=C([C@@H]1O[C@H](CO)[C@H](O)[C@H](n2cc(-c3cc(F)c(F)c(F)c3)nn2)[C@H]1O)N(Cc1ccncc1Cl)[C@H]1CCCC[C@@H]1O [Example 8, (2R,3R,4S,5R,6R)-N-((3-chloropyridin-4-yl)methyl)-3,5-dihydroxy-N-((1S,2S)-2-hydroxycyclohexyl)-6-(hydroxymethyl)-4-(4-(3,4,5-trifluorophenyl)-1H-1,2,3-triazol-1-yl)tetrahydro-2H-pyran-2-carboxamide] | 2490 | 169
3 | CO[C@@H]1[C@@H](n2cc(-c3cc(F)cc(F)c3)nn2)[C@@H](O)[C@@H](CO)O[C@H]1C(=O)N(c1cc(C)cc(C#N)c1)[C@H]1CCCC[C@@H]1O [Example 81, (2R,3R,4S,5R,6R)-N-(3-cyano-5-methylphenyl)-4-(4-(3,5-difluorophenyl)-1H-1,2,3-triazol-1-yl)-5-hydroxy-N-((1S,2S)-2-hydroxycyclohexyl)-6-(hydroxymethyl)-3-methoxytetrahydro-2H-pyran-2-carboxamide] | 1320 | 73
4 | CO[C@@H]1[C@@H](n2cc(-c3cc(F)c(F)c(F)c3)nn2)[C@@H](O)[C@@H](CO)O[C@H]1C(=O)N(c1cc2sc(C)nc2cc1C)[C@H]1CCCC[C@@H]1O [Example 106, (2R,3R,4S,5R,6R)-N-(2,5-dimethylbenzo[d]thiazol-6-yl)-5-hydroxy-N-((1S,2S)-2-hydroxycyclohexyl)-6-(hydroxymethyl)-3-methoxy-4-(4-(3,4,5-trifluorophenyl)-1H-1,2,3-triazol-1-yl)tetrahydro-2H-pyran-2-carboxamide] | 143 | 56
5 | CO[C@@H]1[C@@H](n2cc(-c3cc(F)c(F)c(F)c3)nn2)[C@@H](O)[C@@H](CO)O[C@H]1C(=O)N(c1cc(Cl)ccc1C)[C@H]1CCCC[C@@H]1O [Example 89, (2R,3R,4S,5R,6R)-N-(5-chloro-2-methylphenyl)-5-hydroxy-N-((1S,2S)-2-hydroxycyclohexyl)-6-(hydroxymethyl)-3-methoxy-4-(4-(3,4,5-trifluorophenyl)-1H-1,2,3-triazol-1-yl)tetrahydro-2H-pyran-2-carboxamide] | 76 | 10
6 | O=C([C@@H]1O[C@H](CO)[C@H](O)[C@H](n2cc(-c3ccc(Br)c(F)c3)nn2)[C@H]1O)N(Cc1ccccc1C(F)(F)F)[C@H]1CCCC[C@@H]1O [Example 70, (2R,3R,4S,5R,6R)-4-(4-(4-bromo-3-fluorophenyl)-1H-1,2,3-triazol-1-yl)-3,5-dihydroxy-N-((1S,2S)-2-hydroxycyclohexyl)-6-(hydroxymethyl)-N-(2-(trifluoromethyl)benzyl)tetrahydro-2H-pyran-2-carboxamide] | 615 | 90
7 | CO[C@@H]1[C@@H](n2cc(-c3cc(F)c(F)c(F)c3)nn2)[C@@H](O)[C@@H](CO)O[C@H]1C(=O)N(c1cc(C)cc(F)c1)[C@H]1CCCC[C@@H]1O [Example 119, (2R,3R,4S,5R,6R)-N-(3-fluoro-5-methylphenyl)-5-hydroxy-N-((1S,2S)-2-hydroxycyclohexyl)-6-(hydroxymethyl)-3-methoxy-4-(4-(3,4,5-trifluorophenyl)-1H-1,2,3-triazol-1-yl)tetrahydro-2H-pyran-2-carboxamide] | 1830 | 30
8 | CO[C@@H]1[C@@H](n2cc(-c3cc(F)c(F)c(F)c3)nn2)[C@@H](O)[C@@H](CO)O[C@H]1C(=O)N(Cc1ccccc1C(F)(F)F)[C@H]1CCCC[C@@H]1O [Example 11, (2R,3R,4S,5R,6R)-5-hydroxy-N-((1S,2S)-2-hydroxycyclohexyl)-6-(hydroxymethyl)-3-methoxy-N-(2-(trifluoromethyl)benzyl)-4-(4-(3,4,5-trifluorophenyl)-1H-1,2,3-triazol-1-yl)tetrahydro-2H-pyran-2-carboxamide] | 497 | 55
9 | COc1ncnc(OC)c1CN(C(=O)[C@@H]1O[C@H](CO)[C@H](O)[C@H](n2cc(-c3cc(F)c(F)c(F)c3)nn2)[C@H]1O)[C@H]1CCCC[C@@H]1O [Example 28, (2R,3R,4S,5R,6R)-N-((4,6-dimethoxypyrimidin-5-yl)methyl)-3,5-dihydroxy-N-((1S,2S)-2-hydroxycyclohexyl)-6-(hydroxymethyl)-4-(4-(3,4,5-trifluorophenyl)-1H-1,2,3-triazol-1-yl)tetrahydro-2H-pyran-2-carboxamide] | 3970 | 165

Continued, values first:

Row | IC50 [1] [nM] | IC50 [2] [nM] | Structure (SMILES)
10 | 140 | 13 | CO[C@@H]1[C@@H](n2cc(-c3cc(F)c(F)c(Cl)c3)nn2)[C@@H](O)[C@@H](CO)O[C@H]1C(=O)N(c1cc(Cl)cc(C#N)c1)[C@H]1CCCC[C@@H]1O [Example 132, (2R,3R,4S,5R,6R)-4-(4-(3-chloro-4,5-difluorophenyl)-1H-1,2,3-triazol-1-yl)-N-(3-chloro-5-cyanophenyl)-5-hydroxy-N-((1S,2S)-2-hydroxycyclohexyl)-6-(hydroxymethyl)-3-methoxytetrahydro-2H-pyran-2-carboxamide]
11 | 1510 | 24 | CO[C@@H]1[C@@H](n2cc(-c3cc(F)c(Br)c(F)c3)nn2)[C@@H](O)[C@@H](CO)O[C@H]1C(=O)N(c1cc(F)cc(C#N)c1)[C@H]1CCCC[C@@H]1O [Example 155, (2R,3R,4S,5R,6R)-4-(4-(4-bromo-3,5-difluorophenyl)-1H-1,2,3-triazol-1-yl)-N-(3-cyano-5-fluorophenyl)-5-hydroxy-N-((1S,2S)-2-hydroxycyclohexyl)-6-(hydroxymethyl)-3-methoxytetrahydro-2H-pyran-2-carboxamide]
12 | 96 | 9 | O=C(O)CO[C@@H]1[C@@H](n2cc(-c3cc(F)c(F)c(F)c3)nn2)[C@@H](O)[C@@H](CO)O[C@H]1C(=O)N(c1cc(Cl)cc(Cl)c1)[C@H]1CCCC[C@@H]1O [Example 195, 2-(((2R,3R,4S,5R,6R)-2-((3,5-dichlorophenyl)((1S,2S)-2-hydroxycyclohexyl)carbamoyl)-5-hydroxy-6-(hydroxymethyl)-4-(4-(3,4,5-trifluorophenyl)-1H-1,2,3-triazol-1-yl)tetrahydro-2H-pyran-3-yl)oxy)acetic acid]
13 | 341 | 21 | CO[C@@H]1[C@@H](n2cc(-c3ccc(Br)cc3)nn2)[C@@H](O)[C@@H](CO)O[C@H]1C(=O)N(c1cc(Cl)cc(C#N)c1)[C@H]1CCCC[C@@H]1O [Example 202, (2R,3R,4S,5R,6R)-4-(4-(4-bromophenyl)-1H-1,2,3-triazol-1-yl)-N-(3-chloro-5-cyanophenyl)-5-hydroxy-N-((1S,2S)-2-hydroxycyclohexyl)-6-(hydroxymethyl)-3-methoxytetrahydro-2H-pyran-2-carboxamide]
